Values after ≈ are worked out from the molar mass of the structure shown.
Assay: Bimatoprost solubility in formulation vehicles with different solubilizers
Assay type: physicochemical
Settings: for solubility at 8 weeks: measured at 8 weeks; for solubility at 1 week: formulation vehicle with 1% SOLUPLUS (PCA-PVA-PEG), vehicle with 1% SOLUPLUS (PCA-PVA-PEG), measured at 1 week only
Excerpt: Table 1 summarizes solubility of bimatoprost in vehicles with 5 different solubilizers over a range of temperatures.

Compound: CCNC(=O)CCC/C=C\C[C@@H]1[C@@H](/C=C/[C@@H](O)CCc2ccccc2)[C@H](O)C[C@@H]1O [Bimatoprost]
- solubility at 8 weeks (formulation vehicle with 1% POE 40 Stearate, aqueous with cosolvent or surfactant or cyclodextrin, vehicle with 1% POE 40 Stearate, 5 °C): 1270 µg/mL (≈ 3.05 mM)
- solubility at 8 weeks (formulation vehicle with 1% POE 40 Stearate, aqueous with cosolvent or surfactant or cyclodextrin, vehicle with 1% POE 40 Stearate, 25 °C): 1210 µg/mL (≈ 2.92 mM)
- solubility at 8 weeks (formulation vehicle with 1% POE 40 Stearate, aqueous with cosolvent or surfactant or cyclodextrin, vehicle with 1% POE 40 Stearate, 40 °C): 1150 µg/mL (≈ 2.76 mM)
- solubility at 8 weeks (formulation vehicle with 1% Polysorbate 20, aqueous with cosolvent or surfactant or cyclodextrin, vehicle with 1% Polysorbate 20, 5 °C): 1240 µg/mL (≈ 2.99 mM)
- solubility at 8 weeks (formulation vehicle with 1% Polysorbate 20, aqueous with cosolvent or surfactant or cyclodextrin, vehicle with 1% Polysorbate 20, 25 °C): 1180 µg/mL (≈ 2.83 mM)
- solubility at 8 weeks (formulation vehicle with 1% Polysorbate 20, aqueous with cosolvent or surfactant or cyclodextrin, vehicle with 1% Polysorbate 20, 40 °C): 1050 µg/mL (≈ 2.53 mM)
- solubility at 8 weeks (formulation vehicle with 1% Polysorbate 80, aqueous with cosolvent or surfactant or cyclodextrin, vehicle with 1% Polysorbate 80, 5 °C): 1680 µg/mL (≈ 4.04 mM)
- solubility at 8 weeks (formulation vehicle with 1% Polysorbate 80, aqueous with cosolvent or surfactant or cyclodextrin, vehicle with 1% Polysorbate 80, 25 °C): 1520 µg/mL (≈ 3.67 mM)
- solubility at 8 weeks (formulation vehicle with 1% Polysorbate 80, aqueous with cosolvent or surfactant or cyclodextrin, vehicle with 1% Polysorbate 80, 40 °C): 1460 µg/mL (≈ 3.51 mM)
- solubility at 1 week (aqueous with cosolvent or surfactant or cyclodextrin, 5 °C): 427 µg/mL (≈ 1.03 mM)
- solubility at 1 week (aqueous with cosolvent or surfactant or cyclodextrin, 25 °C): 3510 µg/mL (≈ 8.45 mM)
- solubility at 1 week (aqueous with cosolvent or surfactant or cyclodextrin, 40 °C): 4750 µg/mL (≈ 11.4 mM)
- solubility at 8 weeks (formulation vehicle with 1% SOLUTOL HS 15, aqueous with cosolvent or surfactant or cyclodextrin, vehicle with 1% SOLUTOL HS 15, 5 °C): 1500 µg/mL (≈ 3.61 mM)
- solubility at 8 weeks (formulation vehicle with 1% SOLUTOL HS 15, aqueous with cosolvent or surfactant or cyclodextrin, vehicle with 1% SOLUTOL HS 15, 25 °C): 1320 µg/mL (≈ 3.18 mM)
- solubility at 8 weeks (formulation vehicle with 1% SOLUTOL HS 15, aqueous with cosolvent or surfactant or cyclodextrin, vehicle with 1% SOLUTOL HS 15, 40 °C): 1240 µg/mL (≈ 2.98 mM)
